Laboratory results reported in patent EP0022408A1, “Derivatives of alpha-phenyl-2-pyrrolidine methanol and their salts, process for their preparation, use as medicines and compositions containing them” (ROUSSEL-UCLAF, priority 1979, dated 1981).
Where a name gives a salt, the structure may show the parent alone.

Tests used:
[1] = test system: bronchospasme provoqué par l'histamine; assay: Action on histamine-induced bronchospasm in the guinea pig (Konzett and Rossler method); assay type: in vivo, cobaye; settings: 1µg/kg i.v. one minute before histamine (2 à 10µg/kg i.v.)
Procedure: -2) Action sur le bronchospasme provoqué par l'histamine chez le cobaye
Suivant la méthode de Konzett et Rossler Arch. exp. Path. Pharmakol. 195 71 (1940), de l'histamine est administrée à une dose variant de 2 à 10µg/kg i.v. selon la sensibilité de l'animal.
L'enregistrement de la pression produite par l'air expulsé est effectué à l'aide d'un microdynamomètre Apelab.
Le produit à tester est injecté en solution dans le sérum physiologique par voie i.v. une minute avant l'histamine.
On enregistre un éventuel effet du produit seul et son action antagoniste vis-à-vis de l'agent constricteur.
L'activité antagoniste est exprimée en pourcentage de protection par rapport au bronchospasme initial dû à l'histamine.

souris = assay: Acute toxicity, intraperitoneal, mouse; assay type: in vivo; settings: mortality recorded 48 hours after administration
Source text: 5) Etude de la toxicité aigüe
On évalue les doses létales 50 (DL 50) des produits après administration par voie intrapéritonéale chez la souris.
La mortalité est relevée quarante-huit heures après l'administration des produits.

[2] = test system: Hypothermie à la réserpine; assay: Antidepressant activity: reserpine hypothermia; assay type: in vivo, souris mâles; settings: 10 mg/kg I.P; reserpine 4 mg/kg intraperitoneal; rectal temperature measured for 5 hours
Procedure: (§1) 6) Détermination de l'activité antidénpressive
a) Hypothermie à la réserpine
Le test est effectué sur un lot de 10 souris mâles auxquelles on administre par voie intrapéritonéale 4 mg/kg de réserpine.
La température rectale des animaux est mesurée pendant 5 heures à l'aide d'un thermomètre électrique.

[3] = test system: pression artérielle carotidienne; assay: Hypotensive activity in anaesthetised rats (carotid arterial pressure); assay type: in vivo, rats mâles de souche Sprague Dawley S.P.F.; settings: rats anaesthetised with nembutal
Procedure: 3) Déterminiation de l'activité hypotensive
L'activité hypotensive a été étudiée sur des rats mâles de souche Sprague Dawley S.P.F. pesant 300 g environ et anesthésiés au nembutal (50 mg/kg par voie intraveineuse).
Le produit testé a été administré par voie intraveineuse dans la veine jugulaire.
La pression artérielle carotidienne a été mesurée avant et après administration du produit testé.
Le tableau ci-après indique les variations exprimées en pourcentage de la pression artérielle, après administration du produit testé par rapport à la pression artérielle initiale ainsi que le temps pendant lequel se manifestent ces variations.

trachée isolée de cobaye = assay: Action on isolated guinea pig trachea (carbachol-induced contractions); assay type: cell-based; settings: Cavia porcellus; product at 3.10^-6M; carbachol 0,4µ/ml; Krebs Henseleit solution, 37°C; read-out: antagonise les contractions provoquées par le carbachol
Procedure: 1) Action sur la trachée isolée de cobaye
On prélève les trachées de cobaye que l'on vient de sacrifier par un coup sur la nuque, les trachées sont découpées en spirale et suspendues dans une solution de Krebs Henseleit, à la température de 37°C dans laquelle barbote un mélange de 95 % d'oxygène et 5 % de gaz carbonique.
On ajoute dans la solution du carbachol comme agoniste pour provoquer des contractions.
Le produit de l'exemple 1 à la concentration de 3.10^-6M, antagonise de 100 % les contractions provoquées par le carbachol à la concentration de 0,4µ/ml.

[4] = test system: Hypothermie à l'apomorphine; assay: Antidepressant activity: apomorphine hypothermia; assay type: in vivo, souris mâles; settings: Mus musculus, ip; intraperitoneal, before apomorphine hydrochloride 16 mg/kg intraperitoneal; rectal temperature; read-out: DE 50 (dose qui réduit de 50 % l'écart de température observé entre les témoins)
Procedure: as §1
b) Hypothermie à l'apomorphine
Le test est effectué sur un lot de 10 souris mâles.
On induit chez les animaux une hypothermie par injection intrapéritonéale de 16 mg/kg de chlorhydrate d'apomorphine. Le composé testé est administré par voie intrapéritonéale 30 mm avant l'injection d'apomorphine; la température rectale des animaux est mesurée 30 mm après l'injection d'apomorphine.
Des animaux témoins reçoivent soit du soluté physiologique, soit de l'apomorphine; on mesure l'écart de température entre les témoins ayant reçu le soluté physiologique, les témoins ayant reçu l'apomorphine seule et les animaux ayant reçu l'apomorphine et le composé testé.
On appelle DE 50 la dose de composé qui réduit de 50 % l'écart de température observé entre les témoins, […]

Row | Compound | inhibition de la broncho constriction à l'histamine (pourcentage de protection par rapport au bronchospasme initial) ([1]; listed as exemple 3) [%] | dose létale 50 (DL 50) (souris; listed as exemple 3, 2880 min) [mg/kg] | apparition de l'hypothermie provoquée par la réserpine [2] | Variations % de la pression artérielle ([3]; 1 mg/kg intravenous (jugular vein), relative to initial pressure) [%] | Durée d'action ([3]; 1 mg/kg intravenous) [min] | inhibition at 3 µM (trachée isolée de cobaye) [%] | inhibition de la broncho constriction à l'histamine (pourcentage de protection par rapport au bronchospasme initial) ([1]; listed as exemple 1) [%] | dose létale 50 (DL 50) (souris; listed as exemple 1, 2880 min) [mg/kg] | ED50 [4] [mg/kg]
1 | Oc1ccc(C(O)C2CCCN2)cc1O (single isomer, unassigned) [Exemple 3, Chlorhydrate du 4-/α-hydroxy(pyrrolidin-2-yl) méthyl/1,2-benzène diol (isomère B)] | 17 | 40 |  |  |  |  |  |  | 
2 | Oc1ccc(C(O)C2CCCN2)cc1O (single isomer, unassigned) [Exemple 1, Oxalate acidede 4-[α-hydroxy(pyrrolidin-2-yl)méthyl]1,2-benzène diol (isomère A)] |  |  | retarde l'apparition de l'hypothermie provoquée par la réserpine | -35 | >65 | 100 | 52 | 250 | 25
